Reference: patent US4005093A, “2-Naphthyl-lower-alkylamines” (Sterling Drug Inc., priority 1975, dated 1977)
Where a name gives a salt, the structure may show the parent alone.

Key:
[1] = system: adjuvant-induced arthritis; test: modification of the inhibition of adjuvant-induced arthritis test (adjuvant arthritis, AA); assay type: in vivo; conditions: oral
Protocol: (§1) Anti-inflammatory activity was determined using (1) the inhibition of carrageenin-induced foot edema test essentially described by Van Arman et al., J. Pharmacol. Exptl. Therap. 150, 328 (1965) as modified by Winter et al., Proc. Soc. Exp. Biol. and Med. 111, 544 (1962) and (2) a modification of the inhibition of adjuvant-induced arthritis test described by Pierson, J. Chronic Diseases 16, 863 (1963) and Glenn et al., Am. J. Vet. Res. 26, 1180 (1965). […] Data so-obtained, given in terms of percent inhibition at a dose expressed in terms of […] (μM)/kg., are given below. All data were obtained on oral administration.

[2] = system: carrageenin-induced foot edema; test: inhibition of carrageenin-induced foot edema test (carrageenin edema, CE); assay type: in vivo; conditions: oral
Protocol: as §1

[3] = dose 0.01 (millimoles (μM)/kg [sic])
[4] = dose 0.04 millimoles (μM)/kg [sic], hydrochloride
[5] = dose 0.16 millimoles (μM)/kg [sic], hydrochloride
[6] = dose 0.08 (millimoles (μM)/kg [sic]), hydrochloride
[7] = dose 0.324 millimoles (μM)/kg [sic], hydrochloride
[8] = dose 0.16 millimoles (μM)/kg [sic]
[9] = dose 0.08 (millimoles (μM)/kg [sic])
[10] = dose 0.324 millimoles (μM)/kg [sic]
[11] = dose 0.005 (printed millimoles (μM)/kg)
[12] = dose 0.02 (printed millimoles (μM)/kg)

SMILES	AA (% Inhib./μM/kg.) [1, 3] [%]	AA (% Inhib./μM/kg.) [1, 5] [%]	CE (% Inhib./μM/kg.) [2, 6] [%]	CE (% Inhib./μM/kg.) [2, 7] [%]	CE (% Inhib./μM/kg.) [2, 9] [%]	CE (% Inhib./μM/kg.) [2, 10] [%]	also measured
COc1ccc2cc(C(C)CN3CCCCC3CC3CCCCC3)ccc2c1.Cl (stereo not drawn) [1 (α-Isomer), 2-cyclohexylmethyl-1-[2-(6-methoxy-2-naphthyl)-2-methylethyl]piperidine hydrochloride]	0	86	14	40	–	–	AA (% Inhib./μM/kg.) [1, 4]: 8%
COc1ccc2cc(C(C)CN3CCCCC3CC3CCCCC3)ccc2c1.Cl (stereo not drawn) [1 (β-Isomer), 2-cyclohexylmethyl-1-[2-(6-methoxy-2-naphthyl)-2-methylethyl]piperidine hydrochloride]	0	89	16	47	–	–	AA (% Inhib./μM/kg.) [1, 4]: 12%
COc1ccc2cc(C(C)CN3CCCCC3CC3CCCCC3)ccc2c1.Cl (stereo not drawn) [1 (γ-Isomer), 2-cyclohexylmethyl-1-[2-(6-methoxy-2-naphthyl)-2-methylethyl]-piperidine hydrochloride]	–	86	24	45	–	–	AA (% Inhib./μM/kg.) ([1]; dose 0.018 (printed millimoles (μM)/kg)): 2%; AA (% Inhib./μM/kg.) ([1]; dose 0.053 (printed millimoles (μM)/kg)): 49%
COc1ccc2cc(C(C)CN3CCCCC3C3CCCCC3)ccc2c1 (stereo not drawn) [Example 2, 2-cyclohexyl-1-[2-(6-methoxy-2-naphthyl)-2-methylethyl-]piperidine hydrochloride]	17	–	–	–	35	69	AA (% Inhib./μM/kg.) ([1]; dose 0.04 millimoles (μM)/kg [sic]): 31%; AA (% Inhib./μM/kg.) [1, 8]: 61%
COc1ccc2cc(C(C)CN3CCCCC3CCC3CCCCC3)ccc2c1 (stereo not drawn) [Example 3, 2-(2-cyclohexylethyl)-1-[2-(6-methoxy-2-naphthyl)-2-methylethyl]-piperidinehydrochloride]	–	–	–	–	66	52	AA (% Inhib./μM/kg.) [1, 11]: 0%; AA (% Inhib./μM/kg.) [1, 12]: 40%; AA (% Inhib./μM/kg.) [1, 9]: 16%
COc1ccc2cc(C(C)CN3CCC(CCC4CCCCC4)CC3)ccc2c1 (stereo not drawn) [Example 4, 4-(2-cyclohexylethyl)-1-[2-(6-methoxy-2-naphthyl)-2-methylethyl]-piperidine]	–	–	–	–	22	38	AA (% Inhib./μM/kg.) [1, 11]: 0%; AA (% Inhib./μM/kg.) [1, 12]: 0%; AA (% Inhib./μM/kg.) [1, 9]: 34%
COc1ccc2cc(CCN3CCCCC3CC3CCCCC3)ccc2c1 (stereo not drawn) [Example 5, 2-cyclohexylmethyl-1-[2-(6-methoxy-2-naphthyl)ethyl]piperidine]	–	–	–	–	29	68	AA (% Inhib./μM/kg.) [1, 10]: 55%
CCN(CC)CCCC(C)NCC(C)c1ccc2cc(OC)ccc2c1 (stereo not drawn) [Example 6, N-[2-(6-methoxy-2-naphthyl)-2-methylethyl]-N-[5-(N',N'-diethyl-amino)-2-pentyl]amine]	–	–	–	–	28	26	AA (% Inhib./μM/kg.) [1, 8]: 73%
